These compounds were tested against T1, Dihydrofolate reductase (Enterococcus faecium, UniProt P00380) (assay: Inhibition of Streptococcus faecium dihydrofolate reductase using dihydrofolate as substrate). Details: read-out: I50.
T1 sequence (P00380 whole entry): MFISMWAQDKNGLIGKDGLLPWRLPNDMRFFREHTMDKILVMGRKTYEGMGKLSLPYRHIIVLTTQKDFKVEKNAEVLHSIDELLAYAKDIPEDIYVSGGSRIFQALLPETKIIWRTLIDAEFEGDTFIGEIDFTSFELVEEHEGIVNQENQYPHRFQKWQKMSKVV

Row | IC50 | SMILES
1 | 2.4 nM | CCOC(=O)CC[C@H](NC(=O)c1ccc(NCc2ccc3nc(N)nc(N)c3c2C)cc1)C(=O)OCC
2 | 2.2 nM | Cc1c(CNc2ccc(C(=O)N[C@@H](CCC(=O)O)C(=O)O)cc2)ccc2nc(N)nc(N)c12
3 | 1.7 nM | CCOC(=O)CC[C@H](NC(=O)c1ccc(NCc2ccc3nc(N)nc(N)c3c2Cl)cc1)C(=O)OCC
4 | 0.7 nM | Nc1nc(N)c2c(Cl)c(CNc3ccc(C(=O)N[C@@H](CCC(=O)O)C(=O)O)cc3)ccc2n1
5 | 32 nM | CCOC(=O)CC[C@H](NC(=O)c1ccc(CNc2ccc3nc(N)nc(N)c3c2)cc1)C(=O)OCC
6 | 3.9 nM | CCOC(=O)CC[C@H](NC(=O)c1ccc(CNc2ccc3nc(N)nc(N)c3c2C)cc1)C(=O)OCC
7 | 8.3 nM | Cc1c(NCc2ccc(C(=O)N[C@@H](CCC(=O)O)C(=O)O)cc2)ccc2nc(N)nc(N)c12
8 | 24000 nM | CCOC(=O)CC[C@H](NC(=O)c1ccc(CNc2ccc3nc(N)nc(O)c3c2)cc1)C(=O)OCC
9 | 22000 nM | Nc1nc(O)c2cc(NCc3ccc(C(=O)N[C@@H](CCC(=O)O)C(=O)O)cc3)ccc2n1
10 | 115000 nM | CCOC(=O)CC[C@H](NC(=O)c1ccc(CNc2ccc3nc(N)nc(O)c3c2C)cc1)C(=O)OCC
11 | 5900 nM | Cc1c(NCc2ccc(C(=O)N[C@@H](CCC(=O)O)C(=O)O)cc2)ccc2nc(N)nc(O)c12
12 | 32 nM | Nc1nc(N)c2cc(NCc3ccc(C(=O)N[C@@H](CCC(=O)O)C(=O)O)cc3)ccc2n1

Row | SMILES | IC50
13 | Cc1c(CNc2ccc(C(=O)N[C@@H](CC(=O)O)C(=O)O)cc2)ccc2ncnc(N)c12 [METHASQUIN] | 2.5 nM

The compounds below were run on L1210 (assay: Antitumor activity against mouse L1210 cells allografted in mouse assessed as increase in survival at 75 mg/kg administered on day 1 relative to control). Details: L1210, 24 h.
Format: functional

Row | SMILES | survival at 75 mg/kg
14 | Nc1nc(N)c2cc(CN(C=O)c3ccc(C(=O)N[C@@H](CCC(=O)O)C(=O)O)cc3)ccc2n1 | 0%

What follows are compounds tested on L1210 (assay: Antitumor activity against mouse L1210 cells allografted in mouse assessed as increase in survival at 100 mg/kg administered on day 1 to 3 relative to control). Details: L1210, 24 h.
Format: functional

Row | SMILES | survival at 100 mg/kg
15 | Nc1nc(O)c2cc(CN(C=O)c3ccc(C(=O)N[C@@H](CCC(=O)O)C(=O)O)cc3)ccc2n1 | 19%

These compounds were tested on L1210 (assay: Antitumor activity against mouse L1210 cells allografted in mouse assessed as increase in survival at 100 mg/kg administered on day 1 to 5 relative to control). Details: L1210, 24 h.
Format: functional

Row | SMILES | survival at 100 mg/kg
16 | Nc1nc(O)c2cc(CN(C=O)c3ccc(C(=O)N[C@@H](CCC(=O)O)C(=O)O)cc3)ccc2n1 | 25%

The compounds below were run on Mus musculus (assay: Toxicity in mouse allografted with mouse L1210 cells assessed as mortality at 75 mg/kg administered on day 1 measured on day 2). Details: in vivo.
Format: organism-based
Parameters: dose 75 mg/kg

Row | SMILES | Activity
17 | Nc1nc(N)c2cc(CN(C=O)c3ccc(C(=O)N[C@@H](CCC(=O)O)C(=O)O)cc3)ccc2n1 | Toxic

Each compound was assayed on L1210 (assay: Antitumor activity against mouse L1210 cells allografted in mouse assessed as increase in survival at 200 mg/kg administered on day 1 to 3 relative to control). Details: L1210, 24 h.
Format: functional

Row | SMILES | survival at 200 mg/kg
18 | Nc1nc(O)c2cc(CN(C=O)c3ccc(C(=O)N[C@@H](CCC(=O)O)C(=O)O)cc3)ccc2n1 | 15%

— ChEMBL document CHEMBL3244206, “Quinazolines as inhibitors of dihydrofolate reductase. 4. Classical analogues of folic and isofolic acids” (J Med Chem, 1977)
